Broadly, the melting point is the temperature, or range, at which the solid turns liquid.

`CC(C)(C)C(CS(=O)(=O)c1ccc(Oc2ccc(OC(F)(F)F)cc2)cc1)N(O)C=O` (stereo not given) returned a melting point of 160 °C.

As to `CCOC(=O)c1cccc(-c2c(OC)cccc2C(=O)O)c1`, the melting point is 128 to 129 °C.

`CN(CCN1CCOCC1)c1noc2cc(OC(=O)NCc3ccccc3)ccc12` returned a melting point of 106 to 107 °C.

As for `CC(Oc1ccc(Oc2ncc(Cl)cc2N)cc1)C(=O)O` (stereo not given), the melting point lay within 152 to 154 °C.

`CC(C)c1nn(-c2ncccn2)c(-c2ccc(F)cc2)c1Br` came in with a melting point of 130 to 133 °C.

`CCOC(=O)c1ncn2c1CN(C)C(=O)c1cc(C(F)(F)F)ccc1-2` came in with a melting point of 179 to 180 °C.

In the case of `Cc1cc2c(cc1N1CCCC1)OC(=O)C2C` (stereo not given), the melting point is 67 to 69 °C.

In turn, `Cc1ccc(OC(C)(C)C=O)c(C#N)c1` showed a melting point of 60 to 64 °C.

In turn, `CC1(C)OC(c2ccc(S(C)(=O)=O)cc2)=C(Br)C1=O` came in with a melting point of 196 °C.

With `O=c1nc(-c2ccccn2)sc2cc(Br)ccc12`, the melting point fell in the range of 231 to 232 °C.

`C[C@]1(N2C(=O)c3ccc(CNC(=O)c4ccc(Br)cn4)cc3C2=O)CCC(=O)NC1=O` came in with a melting point of 260 to 262 °C.

As for `O=C(NOC1CCCCO1)c1ccc(C(=O)Nc2cccc(Nc3nc(-c4cccnc4)cs3)c2)cc1` (stereo not given), the melting point came out at 224 °C.

For `CCC1CC(=O)N(Cc2cccc(NC(C)=O)c2)N=C1c1ccc(OC)c(OC)c1` (stereo not given), the melting point was 142 °C.

In turn, `Clc1ncnc2c1CCOc1ccccc1-2` had a melting point of 114 to 115 °C.

Compound `Cc1ncc2cccc(CCCCCC(=O)O)n12` returned a melting point of 170 to 173 °C.

Compound `O=C1NCN(c2ccccc2)C12CCN(CCCn1c(=O)[nH]c3ccccc31)CC2` had a melting point of 228 °C.

With `O=C(O)CCCCCOc1c(Cl)cc(NC(=O)NC(=O)c2ccccc2Cl)cc1Cl`, the melting point lay within 171 to 173 °C.

On to `CSc1ccc2c(n1)C(c1ccccc1)=[N+]([O-])Cc1nncn1-2`, for which the melting point is 190 to 192 °C.

In the case of `CCCOCC1(C)CCCOc2cc(C#Cc3ccc(C(=O)O)cc3)ccc21` (stereo not given), the melting point lay in the range of 148 to 149 °C.

For `COc1cccc(-c2cnc(C#N)c(C#N)n2)c1`, the melting point lay within 139 to 140 °C.

On to `CCCc1c(OCCCCCCc2cccc(OCCCCCCCC(=O)O)c2CCC(=O)O)ccc2c1OCCC2=O`, for which the melting point was 79 to 81 °C.

Compound `CCCCCCCCCCCC(=O)N1CCOC1=O` yielded a melting point of 63 to 65 °C.

Consider `C[C@H](N)C(c1ccccc1)c1ccccc1`, for which the melting point was in the range of 76 to 77 °C.

Take `COC(=O)c1ccc(OC)cc1OC(=S)N(C)C`: the melting point lay in the range of 117 to 120 °C.

In turn, `CCCCOc1cc(-n2c(=O)cc(C(F)(F)F)n(C)c2=O)c(F)cc1Br` gave a melting point of 73 °C.

With `CC(C)C(NC(=O)c1ccc(C(=O)NCC(=O)OCc2ccccc2)cc1)C(=O)N(CC(=O)NC(C(=O)C(F)(F)F)C(C)C)C1Cc2ccccc2C1` (mixture of isomers), the melting point lay within 64 to 66 °C.

Compound `O=C1NCCCCC1Br` (stereo not given) displayed a melting point of 109 to 111 °C.

`CCOC(=O)C1CNc2ccc([N+](=O)[O-])cc2O1` (stereo not given): the melting point is 130 to 132 °C.

`Cc1cn(C)c2c1N(C(=O)C(C)N1CCCC1)c1ccccc1NC2=O` (stereo not given) gave a melting point of 213 to 215 °C.

With `CC(=O)Oc1ccccc1C(=O)SC(C)C(=O)NCC(=O)O` (stereo not given), the melting point lay within 100 to 102 °C.

As to `O=C(O)c1cc(N=Nc2cc(C(=O)O)cc(SCc3ccccc3)c2C(=O)c2ccccc2)c(C(=O)c2ccccc2)c(SCc2ccccc2)c1`, the melting point fell in the range of 218 to 220 °C.

With `COC(=O)c1c(C(=O)OC)c2sc3ccccc3n2c1-c1ccc(F)cc1`, the melting point lay within 186 to 187 °C.

On to `CC(C)CC(NC(=O)c1ccc(NCc2c[nH]cn2)cc1-c1ccccc1)C(=O)O` (stereo not given), for which the melting point lay within 114 to 116 °C.

In turn, `O=[N+]([O-])c1ccc(NC2CCCCC2)c([N+](=O)[O-])c1` showed a melting point of 153 °C.

In the case of `CNc1ccc(C#N)c(F)c1`, the melting point was 110 to 112 °C.

Turning to `Cc1cccc(-c2nc(O)c(C)s2)c1Cl`, the melting point is 183 to 184 °C.

For `COc1ccccc1Sc1ccccc1C(=O)O`, the melting point lay in the range of 198 to 200 °C.

`CCCCNC(=O)Nc1ccc(N(CC)CC)cc1C(=O)NCC1CCN(C(c2ccccc2)c2ccccc2)CC1`: the melting point was 158 to 160 °C.

As for `O=C(Cc1ccccn1)OC(=O)Cc1ccccn1`, the melting point was in the range of 105 to 106 °C.

Regarding `N=C(N)Nc1ccc(C(=O)Nc2cccc3cccnc23)cc1`, the melting point fell in the range of 271 to 273 °C.

For `CCCC(CO)(CO)CO`, the melting point fell in the range of 100 to 101 °C.

`CCN(CCc1coc2c(OC)cccc12)C1COc2c(F)ccc(C(N)=O)c2C1` (stereo not given) came in with a melting point of 124 to 132 °C.

On to `CC(O)Cc1ccc2oc(=O)[nH]c2c1` (stereo not given), for which the melting point was in the range of 133 to 134 °C.

Compound `O=C(Nc1ccc(C(F)(F)F)cc1)NC1CCN(S(=O)(=O)c2ccccc2)CC1` yielded a melting point of 248 to 252 °C.

As for `CCOC(=O)C1C(=O)NC(=O)C(CCN(C)C)(c2cccc(OC)c2)C1CC` (stereo not given), the melting point fell in the range of 160 to 162 °C.

As to `CCOC(=O)C(=Cc1cccn2cc(C(F)(F)F)nc12)N=[N+]=[N-]`, the melting point is 140 to 142 °C.

The compound `Cc1c(C)c2c(c(C)c1NCc1ccccc1)OC(C)(C)C2=O` returned a melting point of 79 to 83 °C.

As to `CCOC(=O)N1CCCCN1C(=S)Cl`, the melting point fell in the range of 160 to 162 °C.

In turn, `COc1c(N(C)S(=O)(=O)c2ccc(C)cc2)ccccc1=O` returned a melting point of 94.5 °C.

Compound `CC[C@@H]1NC(C)(C)CO[C@@]1(O)c1cccc(Cl)c1` returned a melting point of 160 to 161 °C.

Turning to `CCOC(=O)c1c(C)n(C(=O)c2ccccc2)c2ccc(Oc3nc(OC)cc(OC)n3)c(C(=O)OCc3ccccc3)c12`, the melting point was in the range of 128 to 132 °C.

`ON=C(c1ccccc1)c1ccc(C(=NO)c2ccccc2)cc1`: the melting point is 230 to 233 °C.

With `Cc1cc(=O)n(Cc2ccccc2)c2ccccc12`, the melting point fell in the range of 109 to 111 °C.

As for `Nc1cccc(NC(=S)Nc2ccc(Cl)cc2)c1`, the melting point lay in the range of 132 to 134 °C.

The compound `COc1ccc(-c2cc3nc(CNCC(C)O)c4ccccc4c3nn2)cc1` (stereo not given) gave a melting point of 147 to 149 °C.

For `CCOc1nc2cc(Cl)c(Cl)cc2nc1N`, the melting point was 191 to 193 °C.

On to `CC(C)(C)C(=O)Oc1cc([N+](=O)[O-])cc([N+](=O)[O-])c1O`, for which the melting point was 132 to 135 °C.

With `CCOC(=O)c1c(C)c(C(=O)CC#N)n(C)c1C`, the melting point was found to be 105 °C.

Consider `COCC1CN(c2ccc3cc(OC(C)=O)ccc3c2)C(=O)O1` (stereo not given), for which the melting point is 110 to 112 °C.

For the compound `C=CCOc1ccc(-c2nc3ccccc3o2)cc1`, the melting point was 95 to 96 °C.

Consider `COc1cc(C(=O)NS(=O)(=O)c2ccccc2C)ccc1Cn1cc(/C=C/C(=O)N(C)C)c2ccc(/C=C/C(=O)N(C)C)cc21`, for which the melting point is 271 to 273 °C.

`C=COC(=O)C1=Cc2cc(Cl)cc(C=C)c2OC1C(F)(F)F` (stereo not given) returned a melting point of 75.9 to 77.2 °C.

As for `CCOC(=O)c1cn(-c2cnsn2)c2cc(F)c(F)cc2c1=O`, the melting point lay within 189 to 192 °C.

With `CC(C)(Cc1ccc(Cl)cc1)C(O)(COc1ccc(Cl)cc1)c1cccnc1` (stereo not given), the melting point lay in the range of 46 to 47 °C.

`O=c1[nH]c2cc(Cl)ccc2cc1-c1ccc(O)cc1` displayed a melting point of 262 °C.

`CC(C)(C)n1nnc(NC(=O)C(c2ccccc2)c2ccccc2)n1` registered a melting point of 191 to 192 °C.

`CCCCCCCCCCCCNC(=O)c1ccccc1N` gave a melting point of 73 to 75 °C.

Regarding `O=C(O)CCc1ccc(Oc2ccc3c(c2)S(=O)(=O)N=C2CCCN23)cc1`, the melting point was 216 to 222 °C.

Turning to `CCCOc1ccc2c(c1)C(=O)C(C(=O)OC)=C2c1ccc2c(c1)OCO2`, the melting point was in the range of 125 to 126 °C.

As to `COc1cc(Nc2nccc(-c3sc(NCCc4ccccc4)nc3C)n2)cc(OC)c1`, the melting point is 201 to 202 °C.

For `COc1ccc(N2CCOCC2)c2sc(-c3nc4ccccc4n3C)nc12`, the melting point was 283 to 285 °C.

On to `COc1ccc(-c2ncc(N(C)CCCCOCC(=O)O)nc2-c2ccc(OC)cc2)cc1`, for which the melting point is 128 to 130 °C.

In the case of `CCCCCCCCCCOc1csc(-c2ccc(N)cc2)c1OCCCCCCCCCC`, the melting point fell in the range of 64.5 to 65.5 °C.

In turn, `COC(=O)c1ccc(S(=O)(=O)C2CCN(CCc3ccc(F)cc3F)CC2)cc1` came in with a melting point of 123 to 124 °C.

The compound `Cc1cc(C(O)CN2CCC(O)(c3cccc(F)c3)CC2)c(C)cc1O` (stereo not given) came in with a melting point of 193 °C.

Turning to `O=C(/C=C/c1ccn(S(=O)(=O)c2ccc(CN3CCOCC3)cc2)c1)NO`, the melting point lay in the range of 168 to 170 °C.

Regarding `CCCc1c(OCCCCCOc2ccc(C(=O)c3cccc(C(=O)O)c3)cc2CCC(=O)O)ccc2c1OCCC2=O`, the melting point was in the range of 122 to 128 °C.

The compound `O=C(COc1ccc(Cl)c(Cl)c1)N1CCC2(CC1)Cn1cc([N+](=O)[O-])nc1O2` displayed a melting point of 218 to 220 °C.

`CC#CCOc1cc(Oc2ccc([N+](=O)[O-])cc2F)ncn1` registered a melting point of 132 °C.

`O=CNc1cnc2ccccc2c1Cl` came in with a melting point of 175 to 177 °C.

`CC(C)(C)Nc1nc(N)nc2c1ncn2C1C=CC(CO)C1` (stereo not given) came in with a melting point of 161 to 163 °C.

`COC(=O)c1cc(C(=O)c2ncc3ccccn23)ccc1[N+](=O)[O-]` showed a melting point of 151 °C.

`NNC(=O)c1ccc2[nH]ncc2c1` yielded a melting point of 251 to 252 °C.

On to `O=c1ccc(S(=O)(=O)c2cc3ccc(Cl)cc3[nH]2)n[nH]1`, for which the melting point was over 250 °C.

For the compound `CC(=O)N[C@@H](C)c1ccc(CO)cc1`, the melting point was in the range of 103 to 104 °C.

In turn, `CCOC(=O)c1c(-c2ccccc2Cl)c2cc(C(C)C)ccc2[nH]c1=O` had a melting point of 173 to 174 °C.

`c1ccc(Cn2ccc3ccccc32)cc1` yielded a melting point of 43 to 45 °C.

Regarding `O=S(=O)(Cl)CCCCCc1ccc(OCc2ccccc2)cc1`, the melting point is 58 to 60 °C.

`O=C(OCc1ccccc1)N1CCOc2c(Br)cc(Cl)cc21` returned a melting point of 95 to 97.7 °C.

Compound `S=Cc1cccc(Cl)c1Cc1ccccc1` registered a melting point of 68 to 70 °C.

The values above are taken from a melting point compilation (Tetko et al.; mined from patent text by program, amines drawn as free bases though some values may be those of a salt).
